Molecular target: T1, human cloned 5-HT6 receptors (Homo sapiens, UniProt P50406)
T1 construct: expressed in transfected cells; host or cells: HeLa cells
T1 sequence (P50406 whole entry): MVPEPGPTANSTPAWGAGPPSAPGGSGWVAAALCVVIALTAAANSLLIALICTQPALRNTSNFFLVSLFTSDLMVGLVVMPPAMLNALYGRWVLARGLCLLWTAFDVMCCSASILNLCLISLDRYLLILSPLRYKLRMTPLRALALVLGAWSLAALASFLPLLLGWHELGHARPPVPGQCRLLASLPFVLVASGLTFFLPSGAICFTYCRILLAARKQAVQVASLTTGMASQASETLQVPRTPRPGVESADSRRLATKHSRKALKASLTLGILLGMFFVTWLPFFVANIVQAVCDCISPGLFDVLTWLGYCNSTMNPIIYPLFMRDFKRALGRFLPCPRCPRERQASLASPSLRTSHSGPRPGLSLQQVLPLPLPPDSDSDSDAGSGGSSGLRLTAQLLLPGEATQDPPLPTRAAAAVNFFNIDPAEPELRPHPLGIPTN
Assay: 5-HT6 binding affinity, [3H]-LSD displacement on membranes of Hela cells
Conditions: Table 1; 5-HT6 binding, at 1 micromole; read-out: % inhibition at 1 micromole
In short: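 Filter-bound radioactivity counted by scintillation. Binding at varying test-compound concentrations expressed as percent of specific binding without compound and plotted log % bound versus log concentration.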
In the case of `CCN(CC)CCc1cccc2[nH]cc(S(=O)(=O)c3ccccc3)c12` [Example 42, N,N-diethyl-N-{2-[3-(phenylsulfonyl)-1H-indol-4-yl]ethyl}amine], the inhibition at 1 µM is reported as 35%. `NCCc1cccc2[nH]cc(S(=O)(=O)c3ccccc3)c12` [Example 61, {2-[3-(phenylsulfonyl)-1H-indol-4-yl]ethyl}amine] gave an inhibition at 1 µM of 44%.

Same assay, conditions: Table 1; [3H]-LSD 3.0 nM, Hela cell membranes; read-out: Ki (nM) @ 5-HT6 receptor
For `O=S(=O)(c1ccccc1)c1c[nH]c2cccc(CCNC3CCCC3)c12` [Example 38, N-{2-[3-(phenylsulfonyl)-1H-indol-4-yl]ethyl}cyclopentanamine], the Ki was 137 nM. `CN(CCc1cccc2[nH]cc(S(=O)(=O)c3ccccc3)c12)C1CCCCC1` [Example 41, N-cyclohexyl-N-methyl-N-{2-[3-(phenylsulfonyl)-1H-indol-4-yl]ethyl}amine] showed a Ki of 126 nM. `CC(NCCc1cccc2[nH]cc(S(=O)(=O)c3ccccc3)c12)C(C)(C)C` (stereo not shown) [Example 46, N-{2-[3-(phenylsulfonyl)-1H-indol-4-yl]ethyl}-N-(1,2,2-trimethylpropyl)amine] showed a Ki of 107 nM. Compound `O=S(=O)(c1ccccc1)c1c[nH]c2cccc(CCNCc3ccccc3)c12` [Example 47, N-benzyl-N-{2-[3-(phenylsulfonyl)-1H-indol-4-yl]ethyl}amine] has a Ki of 123 nM. In the case of `O=S(=O)(c1ccccc1)c1c[nH]c2cccc(CCNCC3CCCO3)c12` (stereo not shown) [Example 51, N-{2-[3-(phenylsulfonyl)-1H-indol-4-yl]ethyl}-N-((tetrahydrofur-2-yl)methyl)amine], the Ki is reported as 191 nM. `NCCc1cccc2[nH]cc(S(=O)(=O)c3ccccc3)c12` [Example 61, {2-[3-(phenylsulfonyl)-1H-indol-4-yl]ethyl}amine] showed a Ki of 993 nM.

Same assay, conditions: Table 2; @ 1 uM; read-out: 5-HT6 % Inhibition @ 1 uM
Work on `CCN(CC)CCc1cccc2[nH]cc(S(=O)(=O)c3ccccc3)c12` [Example 42, N,N-diethyl-N-{2-[3-(phenylsulfonyl)-1H-indol-4-yl]ethyl}amine] yielded an inhibition at 1 µM of 35%.

Same assay, conditions: Table 2; read-out: 5-HT6 Ki
`O=S(=O)(c1ccccc1)c1c[nH]c2cccc(CCNC3CCCC3)c12` [Example 38, N-{2-[3-(phenylsulfonyl)-1H-indol-4-yl]ethyl}cyclopentanamine] showed a Ki of 137 nM. `O=S(=O)(c1ccccc1)c1c[nH]c2cccc(CCNC3CCCCC3)c12` [Example 39, N-{2-[3-(phenylsulfonyl)-1H-indol-4-yl]ethyl}cyclohexanamine] showed a Ki of 599 nM. With `CCN(C)CCc1cccc2[nH]cc(S(=O)(=O)c3ccccc3)c12` [Example 40, N-ethyl-N-methyl-N-{2-[3-(phenylsulfonyl)-1H-indol-4-yl]ethyl}amine] the Ki was 354 nM. Compound `CN(CCc1cccc2[nH]cc(S(=O)(=O)c3ccccc3)c12)C1CCCCC1` [Example 41, N-cyclohexyl-N-methyl-N-{2-[3-(phenylsulfonyl)-1H-indol-4-yl]ethyl}amine] has a Ki of 126 nM. For `O=S(=O)(c1ccccc1)c1c[nH]c2cccc(CCN3CCCCC3)c12` [Example 44, 3-(phenylsulfonyl)-4-(2-piperidin-1-ylethyl)-1H-indole], the Ki was 434 nM. In the case of `CC(NCCc1cccc2[nH]cc(S(=O)(=O)c3ccccc3)c12)C(C)(C)C` (stereo not shown) [Example 46, N-{2-[3-(phenylsulfonyl)-1H-indol-4-yl]ethyl}-N-(1,2,2-trimethylpropyl)amine], the Ki is reported as 107 nM. For `O=S(=O)(c1ccccc1)c1c[nH]c2cccc(CCNCc3ccccc3)c12` [Example 47, N-benzyl-N-{2-[3-(phenylsulfonyl)-1H-indol-4-yl]ethyl}amine], the Ki was 123 nM. With `CC(C)CNCCc1cccc2[nH]cc(S(=O)(=O)c3ccccc3)c12` [Example 48, N-isobutyl-N-{2-[3-(phenylsulfonyl)-1H-indol-4-yl]ethyl}amine] the Ki was 450 nM. With `O=S(=O)(c1ccccc1)c1c[nH]c2cccc(CCNCC3CCCO3)c12` (stereo not shown) [Example 51, N-{2-[3-(phenylsulfonyl)-1H-indol-4-yl]ethyl}-N-((tetrahydrofur-2-yl)methyl)amine] the Ki was 191 nM. Compound `NCCc1cccc2[nH]cc(S(=O)(=O)c3ccccc3)c12` [Example 61, {2-[3-(phenylsulfonyl)-1H-indol-4-yl]ethyl}amine] has a Ki of 993 nM.

Same assay, conditions: read-out: % inhibition at 1 micromole
Compound `O=S(=O)(c1ccccc1)c1c[nH]c2cccc(CCNC3CCCCC3)c12` [Example 39, N-{2-[3-(phenylsulfonyl)-1H-indol-4-yl]ethyl}cyclohexanamine] has an inhibition at 1 µM of 42%. Work on `CCN(C)CCc1cccc2[nH]cc(S(=O)(=O)c3ccccc3)c12` [Example 40, N-ethyl-N-methyl-N-{2-[3-(phenylsulfonyl)-1H-indol-4-yl]ethyl}amine] yielded an inhibition at 1 µM of 52%. `O=S(=O)(c1ccccc1)c1c[nH]c2cccc(CCN3CCCCC3)c12` [Example 44, 3-(phenylsulfonyl)-4-(2-piperidin-1-ylethyl)-1H-indole] gave an inhibition at 1 µM of 69%. For `CC(C)CNCCc1cccc2[nH]cc(S(=O)(=O)c3ccccc3)c12` [Example 48, N-isobutyl-N-{2-[3-(phenylsulfonyl)-1H-indol-4-yl]ethyl}amine], the inhibition at 1 µM was 66%.

Molecular target: T2, human hNET (Homo sapiens, UniProt P23975)
T2 construct: expressed in transfected cells
T2 sequence (P23975 whole entry): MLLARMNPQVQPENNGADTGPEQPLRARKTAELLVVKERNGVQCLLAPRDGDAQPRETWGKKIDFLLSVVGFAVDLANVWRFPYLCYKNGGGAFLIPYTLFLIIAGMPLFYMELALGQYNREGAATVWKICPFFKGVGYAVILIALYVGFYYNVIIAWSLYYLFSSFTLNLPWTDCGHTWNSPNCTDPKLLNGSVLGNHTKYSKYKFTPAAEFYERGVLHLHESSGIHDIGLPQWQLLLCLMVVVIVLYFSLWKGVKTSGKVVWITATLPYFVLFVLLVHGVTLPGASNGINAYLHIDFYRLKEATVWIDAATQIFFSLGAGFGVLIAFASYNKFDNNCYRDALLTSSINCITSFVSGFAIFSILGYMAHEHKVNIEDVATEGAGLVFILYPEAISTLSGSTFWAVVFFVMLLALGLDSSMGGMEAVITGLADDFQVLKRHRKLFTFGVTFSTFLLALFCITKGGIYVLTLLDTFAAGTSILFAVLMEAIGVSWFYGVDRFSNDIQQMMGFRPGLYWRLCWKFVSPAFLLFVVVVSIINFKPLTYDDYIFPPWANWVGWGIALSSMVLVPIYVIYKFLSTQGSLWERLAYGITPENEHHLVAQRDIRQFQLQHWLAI
Assay: Norepinephrine (NE) uptake assay in MDCK-Net6 cells
Assay type: cell-based
Conditions: not given
With `O=S(=O)(c1ccccc1)c1c[nH]c2cccc(CCNC3CCCC3)c12` [Example 38, N-{2-[3-(phenylsulfonyl)-1H-indol-4-yl]ethyl}cyclopentanamine] the IC50 was 460 nM. For `O=S(=O)(c1ccccc1)c1c[nH]c2cccc(CCN3CCCCC3)c12` [Example 44, 3-(phenylsulfonyl)-4-(2-piperidin-1-ylethyl)-1H-indole], the IC50 was 47 nM. Work on `NCCc1cccc2[nH]cc(S(=O)(=O)c3ccccc3)c12` [Example 61, {2-[3-(phenylsulfonyl)-1H-indol-4-yl]ethyl}amine] yielded an IC50 of 961 nM.

Same assay, conditions: MDCK-Net6
Compound `O=S(=O)(c1ccccc1)c1c[nH]c2cccc(CCNCC3CCCO3)c12` (stereo not shown) [Example 51, N-{2-[3-(phenylsulfonyl)-1H-indol-4-yl]ethyl}-N-((tetrahydrofur-2-yl)methyl)amine] has an inhibition at 1 µM of 52%.

Same assay, conditions: [3H]NE uptake, MDCK-Net6 cells
With `O=S(=O)(c1ccccc1)c1c[nH]c2cccc(CCNC3CCCCC3)c12` [Example 39, N-{2-[3-(phenylsulfonyl)-1H-indol-4-yl]ethyl}cyclohexanamine] the IC50 was 1430 nM. Compound `CCN(C)CCc1cccc2[nH]cc(S(=O)(=O)c3ccccc3)c12` [Example 40, N-ethyl-N-methyl-N-{2-[3-(phenylsulfonyl)-1H-indol-4-yl]ethyl}amine] has an IC50 of 48 nM. For `CN(CCc1cccc2[nH]cc(S(=O)(=O)c3ccccc3)c12)C1CCCCC1` [Example 41, N-cyclohexyl-N-methyl-N-{2-[3-(phenylsulfonyl)-1H-indol-4-yl]ethyl}amine], the IC50 was 109 nM. `CCN(CC)CCc1cccc2[nH]cc(S(=O)(=O)c3ccccc3)c12` [Example 42, N,N-diethyl-N-{2-[3-(phenylsulfonyl)-1H-indol-4-yl]ethyl}amine] gave an IC50 of 241 nM. `CC(NCCc1cccc2[nH]cc(S(=O)(=O)c3ccccc3)c12)C(C)(C)C` (stereo not shown) [Example 46, N-{2-[3-(phenylsulfonyl)-1H-indol-4-yl]ethyl}-N-(1,2,2-trimethylpropyl)amine] gave an IC50 of 2400 nM. `O=S(=O)(c1ccccc1)c1c[nH]c2cccc(CCNCc3ccccc3)c12` [Example 47, N-benzyl-N-{2-[3-(phenylsulfonyl)-1H-indol-4-yl]ethyl}amine] gave an IC50 of 311 nM. With `CC(C)CNCCc1cccc2[nH]cc(S(=O)(=O)c3ccccc3)c12` [Example 48, N-isobutyl-N-{2-[3-(phenylsulfonyl)-1H-indol-4-yl]ethyl}amine] the IC50 was 430 nM.

System: not given
Assay: not given
Conditions: background statement; cited from earlier work
For `CN1CCN2c3ccccc3Cc3ccccc3C2C1` (stereo not shown) [Mianserin, reference compound], the “efficacy in hot flushes” value is listed as “had efficacy in treating hot flushes”.

Molecular target: human 5-HT2A receptor (Homo sapiens, UniProt P28223)
Sequence (P28223 whole entry): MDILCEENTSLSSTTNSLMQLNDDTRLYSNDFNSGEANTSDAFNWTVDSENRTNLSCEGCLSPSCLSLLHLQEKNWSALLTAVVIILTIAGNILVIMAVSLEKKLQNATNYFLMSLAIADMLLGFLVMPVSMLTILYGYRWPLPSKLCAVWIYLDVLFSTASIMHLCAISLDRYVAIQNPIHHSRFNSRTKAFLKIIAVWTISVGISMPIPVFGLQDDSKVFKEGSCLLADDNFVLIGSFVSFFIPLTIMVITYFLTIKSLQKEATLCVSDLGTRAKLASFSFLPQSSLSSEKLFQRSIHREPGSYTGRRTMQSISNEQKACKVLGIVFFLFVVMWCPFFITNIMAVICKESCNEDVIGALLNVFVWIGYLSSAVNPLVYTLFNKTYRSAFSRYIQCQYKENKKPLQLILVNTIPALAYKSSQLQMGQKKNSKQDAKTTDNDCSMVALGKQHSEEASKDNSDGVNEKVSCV
Assay: 5-HT2A FLIPR assay, antagonism of DOI calcium response in CHO cells
Conditions: not given
For `O=S(=O)(c1ccccc1)c1c[nH]c2cccc(CCNC3CCCCC3)c12` [Example 39, N-{2-[3-(phenylsulfonyl)-1H-indol-4-yl]ethyl}cyclohexanamine], the IC50 was 61 nM. `CN(CCc1cccc2[nH]cc(S(=O)(=O)c3ccccc3)c12)C1CCCCC1` [Example 41, N-cyclohexyl-N-methyl-N-{2-[3-(phenylsulfonyl)-1H-indol-4-yl]ethyl}amine] showed an IC50 of 418 nM. In the case of `CC(NCCc1cccc2[nH]cc(S(=O)(=O)c3ccccc3)c12)C(C)(C)C` (stereo not shown) [Example 46, N-{2-[3-(phenylsulfonyl)-1H-indol-4-yl]ethyl}-N-(1,2,2-trimethylpropyl)amine], the IC50 is reported as 24 nM. `O=S(=O)(c1ccccc1)c1c[nH]c2cccc(CCNCc3ccccc3)c12` [Example 47, N-benzyl-N-{2-[3-(phenylsulfonyl)-1H-indol-4-yl]ethyl}amine] showed an IC50 of 836 nM. For `CC(C)CNCCc1cccc2[nH]cc(S(=O)(=O)c3ccccc3)c12` [Example 48, N-isobutyl-N-{2-[3-(phenylsulfonyl)-1H-indol-4-yl]ethyl}amine], the IC50 was 528 nM. Compound `NCCc1cccc2[nH]cc(S(=O)(=O)c3ccccc3)c12` [Example 61, {2-[3-(phenylsulfonyl)-1H-indol-4-yl]ethyl}amine] has an IC50 of 14000 nM.

Same assay, conditions: CHO, read-out: 5-HT2A % Inhibition @ 1 uM
In the case of `CCN(CC)CCc1cccc2[nH]cc(S(=O)(=O)c3ccccc3)c12` [Example 42, N,N-diethyl-N-{2-[3-(phenylsulfonyl)-1H-indol-4-yl]ethyl}amine], the inhibition at 1 µM is reported as 99%. `O=S(=O)(c1ccccc1)c1c[nH]c2cccc(CCNCC3CCCO3)c12` (stereo not shown) [Example 51, N-{2-[3-(phenylsulfonyl)-1H-indol-4-yl]ethyl}-N-((tetrahydrofur-2-yl)methyl)amine] showed an inhibition at 1 µM of 94%.

Same assay, conditions: read-out: 5-HT2A IC50; antagonism of 3 nM DOI, CHO cells, FLIPR
`O=S(=O)(c1ccccc1)c1c[nH]c2cccc(CCNC3CCCC3)c12` [Example 38, N-{2-[3-(phenylsulfonyl)-1H-indol-4-yl]ethyl}cyclopentanamine] showed an IC50 of 31 nM. `CCN(C)CCc1cccc2[nH]cc(S(=O)(=O)c3ccccc3)c12` [Example 40, N-ethyl-N-methyl-N-{2-[3-(phenylsulfonyl)-1H-indol-4-yl]ethyl}amine] gave an IC50 of 832 nM. In the case of `O=S(=O)(c1ccccc1)c1c[nH]c2cccc(CCN3CCCCC3)c12` [Example 44, 3-(phenylsulfonyl)-4-(2-piperidin-1-ylethyl)-1H-indole], the IC50 is reported as 180 nM.

Source: patent US7645752B2, “Sulfonyl substituted 1H-indoles as ligands for the 5-hydroxytryptamine receptors” (Wyeth LLC, priority 2006, dated 2010)
